Test results: paper PMC10269622, “Blapstin, a Diapause-Specific Peptide-Like Peptide from the Chinese Medicinal Beetle Blaps rhynchopetera, Has Antifungal Function” (Microbiology Spectrum, 2023)
Bridge positions count the residues as written; N and C are the ends. Ends that are not written are not given here.

Columns and labels:
C. albicans = assay: pH stability of antifungal activity (paper disk assay); format: physicochemical, Candida albicans; details: 30 min at room temperature, then paper disk assay, 37°C, 18 h
Procedure: (ii) Effects of pH. In the test of pH stability of antifungal activity, 50 mg of blapstin was dissolved in 25 mL of solutions with different pH values (pH 3 to 5, 0.1 mol HCl; pH 7 to 9, 1 mmol NaOH), and the peptide solutions of different pH values were incubated at room temperature for 30 min ([63]). Colistin E was used as the positive control, and 1.5% NaCl was used as the negative control. Then, these samples were transferred to the paper disks in the YM solid medium with C. albicans and incubated at 37°C for 18 h for the assay of antifungal activity.

C. albicans ATCC 10231 [1] = assay: Cryo-SEM membrane morphology; format: cell-based, Candida albicans; details: 1× MIC, 10 μL on filter paper disk, YM solid medium
Procedure: Cryo-SEM was used to examine membrane morphology as previously described with minor modifications ([65]). C. albicans ATCC 10231 was cultured in a nutrient YM solid medium. Sterilized 5-mm-diameter filter paper disks were placed on the surface of the medium, and 10 μL (1× MIC) of blapstin was added to the disks. Sterile 0.9% NaCl was used as the blank control. Fungi treated with blapstin were observed using cryo-SEM with a Quorum pp3010t system (Sigma 300; Carl Zeiss, Germany).

[2] = system: established biofilms of C. albicans ATCC 10231; assay: Biofilm eradication assay (crystal violet); format: cell-based, Candida albicans; details: 24 h preformed biofilm, 0.5× to 8× MIC, 37°C, absorbance at 600 nm
Procedure: First, 100 μL of C. albicans ATCC 10231 suspension (1 × 10^6 CFU/mL) was added to each well of a sterile 96-well plate. The plate was incubated at 37°C for 24 h to make the biofilm adhere to the walls and washed three times with PBS. Next, 100 μL of serial dilutions of blapstin (0.5×, 1×, 2×, 4×, and 8× MIC) prepared using YM medium was added to the plate, followed by incubation at 37°C for 24 h. Fluconazole at 10 μM and clotrimazole at 10 μΜ were used as a positive control, and sterile 0.9% NaCl was used as a negative control. After incubation, the liquid in the plate was discarded and washed three times with PBS, followed by the addition of 1% crystal violet solution to each well and incubation at room temperature for 10 min. Finally, the plate was washed three times with PBS, and 100 μL of 95% ethanol was added per well. The percentage of biofilm removal was estimated by measuring the absorbance at 600 nm.

C. albicans ATCC 10231 [3] = assay: Cell membrane potential changes, DiSC3(5) staining; format: cell-based, Candida albicans; details: 16× MIC, 8× MIC and 1× MIC; 0.5 μM DiSC3(5), 100 mM KCl, measured for 60 min; dose-dependent; weaker than 10 μM valinomycin
Procedure: DiSC3(5) is a fluorescent probe often used as a tracer dye to assess the mitochondrial membrane potential ([71]); therefore, we assessed the effects of blapstin on the cell membrane potential changes of C. albicans ATCC 10231 using DiSC3(5) staining. C. albicans ATCC 10231 was cultured in YM medium to logarithmic stage in a constant-temperature shaking machine at 37°C, centrifuged at 1,000 × g for 5 min to remove the supernatant, and washed with normal saline three times, and then normal saline containing 100 mM potassium chloride (KCl) was used to dilute the bacterial solution to an optical density at 600 nm (OD600) of 0.1. DiSC3(5) dye was dissolved by dimethyl sulfoxide (DMSO) into the mother solution and normal saline diluted with 15% DMSO so that the final concentration of DiSC3(5) added to the bacterial solution was 0.5 μM. The mixture was added to a special fluorescent 96-well plate with 190 μL in each well. The excitation/emission wavelengths were set at 622/670 nm, measurement was carried out with a multifunctional fluorescent enzyme labeling instrument (SynergyH1; Biotek, USA) until the value of the enzyme marker was stable, and then measurement was continued for 20 min. The final concentrations were 16× MIC, 8× MIC, and 1× MIC when 10 μL blapstin was added to the experimental group. […]

For “VRVGPCDQVCSRTNPEKDECCRAHGHSGHSSCYGGRMNCYG (disulfide 6-21, 10-32, 20-39 (inferred)) [Blapstin]”, the “Antifungal activity after pH exposure” value (C. albicans; pH 3 and pH 5 (HCl)) was “full antifungal activity was retained”, the “Antifungal activity after pH exposure” value (C. albicans; pH higher than 7 (NaOH, up to pH 9)) was “reduced gradually” and the “Membrane morphology under cryo-SEM” value (C. albicans ATCC 10231 [1]) was “membrane shrinkage and disruption of the plasma membrane”. The “Eradication of established biofilms of C. albicans” value [2] was “disrupted established biofilms” and the “Cellular DiSC3(5) fluorescence (membrane potential) compared with negative control” value (C. albicans ATCC 10231 [3]) was “increased significantly”.
